# PMC10779086, “3-O-Methyltolcapone and Its Lipophilic Analogues Are Potent Inhibitors of Transthyretin Amyloidogenesis with High Permeability and Low Toxicity” (International Journal of Molecular Sciences, 2023)
# Where “and” joins values, the source holds several entries; their conditions need not be identical. Equal values may be shown once.
# Tests used:
# [1] = test system: SH-SY5Y neuroblastoma human cell line; assay: Cytotoxicity in SH-SY5Y cells (ATP viability assay); assay type: cell-based; conditions: 48 h
# Method: The neuroblastoma cell line SHSY-5Y (ATCC CRL2266) was cultured in EMEM ATCC medium supplemented with 10% FBS (Euroclone CAT No. ECS0180D), 100 units/mL penicillin, and 100 ug/mL streptomycin sulphate (Euroclone CAT No. ECB3001). Cells were grown at 37 °C in an atmosphere of 5% CO2 and plated at 10,000 cells/well in a 96-well plate (Corning Cat. N. 3610). The compounds were dissolved at a concentration of 10 mM in DMSO. Cells were stimulated for 48 h at 37 °C with serial dilutions of the compounds at the following concentrations: 0.1, 1, 10, 50, 100, and 200 μM and dispensed with an HP Dispenser (Tecan), as triplicates for each concentration. DMSO normalisation at 1.5% was performed in each well.
# Cell viability was evaluated by measuring ATP levels using CellTiter Glo (Promega Cat.n. G7570) according to manufacturer’s instructions.
# [2] = plasma; cited from earlier work
# TTR = TTR (Homo sapiens, UniProt P02766); assay: TTR tetramer stability in diluted human plasma with urea, by immunoblotting; assay type: biochemical; set-up: from tissue; host or cells: human plasma; conditions: 4 M urea, versus DMSO control
# Method: The TTR tetramer stability assay in the presence of urea and TTR ligands was performed according to a previously reported Western Blot procedure, with some modifications as follows. Aliquots of human plasma were diluted 8-fold in sodium phosphate buffer (NaP 40 mM, NaCl 150 mM pH 7.4) supplemented with 2 µM or 20 µM of each ligand. A plasma aliquot supplemented with DMSO was used as a negative control. After 2 h of incubation at 20 °C, an equal volume of 8 M urea in sodium phosphate buffer was added to obtain a final 4 M urea concentration and final ligand concentration of 1 µM or 10 µM. Incubation was prolonged for 18 h at 20 °C, followed by non-denaturing SDS-PAGE using Tris-Glycine buffers containing 0.025% of SDS in the running buffer and 0.2% of SDS in the Laemmli buffer. […] Blotting was accomplished with a Trans-Blot SD transfer apparatus (BIORAD), followed by incubation of nitrocellulose membranes with blocking buffer containing 5% skim milk overnight at 25 °C. Immunodetection of TTR monomers was performed by employing rabbit anti-human TTR polyclonal antibody (Dako) as a primary and goat anti-rabbit antibody labelled with DyLight 680 ([…]) as a secondary. Western Blot images were recorded by using ChemiDoc MP imaging system (BIORAD) and analysed with Image Lab software v. 5.1 (BIORAD). The experiment was performed in triplicate, and ligands stabilisation capability was evaluated as the relative intensity of the TTR monomer in each condition in comparison to the negative control. Statistical analyses by means of ANOVA and graphic representations were performed with GraphPad Prism.
# Caco-2 cells = assay: Caco-2 intestinal permeability; assay type: in vitro ADME, human; conditions: A→B, relative to tolcapone
# Method: Caco-2 cells (cod. HTB-37) were bought from ATCC (American Type Culture Collection, Rockville, MD, USA). Caco-2 cells were cultured for 21 days on a 24 trans-well plate to reach the right confluence and differentiate until the formation of the intestinal epithelium mimetic monolayer. The test substance permeability was measured in both directions (apical to basolateral [A→B] and basolateral to apical [B→A]) across the cell monolayer. The assay was carried out in HBSS transport medium at pH 7.4. Test substance at single concentration (10 μM) was tested in duplicate at one time point (60 min). Monolayer integrity of Caco-2 cells was evaluated by TEER measurements during the experiment and by Lucifer Yellow test after the incubation with the test compound. The concentrations of the test substance and/or reference controls were measured by LC-MS/MS.
# When the inhibitor leads the efflux ratio to a significant reduction (>50%) or to unity, the test compound is classified as a probable substrate of that efflux transporter. As control, the modulation of the efflux ratio of a reference known substrate (Digoxin) was evaluated with or without the respectively inhibitors in every experiment. […] In parallel, mass balance (%) of recovered test substance was also determined. […] Outside these ranges the permeability data is not reliable.
SMILES,EC50 [1] [µM],half-life [2] [h],relative abundance of TTR monomer (TTR; ligand 1 µM),relative abundance of TTR monomer (TTR; ligand 10 µM) [%],increase of permeability Papp value (A→B) compared to tolcapone (Caco-2 cells) [fold],melting point [°C]
"COc1cc(C(=O)c2ccc(C)cc2)cc([N+](=O)[O-])c1O [3-OMT, 3-O-methyltolcapone]",226.3 ± 1.3,40.9,14% and 14.1 ± 1.8%,9.4 ± 1.5,,
"COc1cc(C(=O)c2cc(C)cc(C)c2)cc([N+](=O)[O-])c1O [Compound 1, (4-Hydroxy-3-methoxy-5-nitrophenyl)-1-(3,5-dimethylphenyl)methanone]",172 ± 5,,17% and 17.2 ± 2.1%,9.5 ± 2.8,2.5,144 to 145
"COc1cc(C(=O)c2ccc(C)cc2C)cc([N+](=O)[O-])c1O [Compound 2, (4-Hydroxy-3-methoxy-5-nitrophenyl)-1-(2,4-dimethylphenyl)methanone]",174 ± 3.7,,7% and 7.5 ± 0.4%,9.2 ± 1.5,2.5,126 to 127
